Here are results for 2 compounds from patent US20040097595A1, “Phthalamide derivatives, insecticides for agricultural and horticultural use and method for application thereof” (priority 2001, published 2004).

Data set [1] has as its system Common Cutworm (Spodoptera litura). The data set can be described thus: Comparative Example 2: insecticidal effect on common cutworm by soil treatment for cabbage. The format is in vivo. Further details: concentration or dose not given beside the values. The settings on record: granules in planting holes; leaf cut eleven days after transplanting; first-instar larvae; three days after inoculation. As to the method: Insecticidal Effect on Common Cutworm (Spodoptera litura) by Soil Treatment for Cabbage
At the time of trans-planting cabbage plants (cultivar: YR Seitoku), planting holes were treated with granules prepared from compound 1-51 according to Formulation Example. Eleven days after the transplanting, a leaf was cut off from the cabbage plant, placed in a plastic Petri dish, and then inoculated with 20 first-instar larvae of common cutworm. Thereafter, the dish was closed and then allowed to stand in a room thermostatted at 25° C. Three days after the inoculation, the dead and alive were counted and the mortality was calculated in the same manner as in Comparative Test Example 1.

For data set [2] the test system is unchanged. The data set can be described thus: Comparative Test Example 1: insecticidal effect on common cutworm, treated synthetic diet. The class given is in vivo. The settings on record: 192 h, synthetic diet treated with 0.5 ml, third-instar larvae, eight days after inoculation. As for the experimental part: Insecticidal Effect on Common Cutworm (Spodoptera litura)
A synthetic diet packed in a plastic Petri dish was treated with 0.5 ml of a liquid chemical prepared by diluting a preparation containing compound 1-51 as an active ingredient to adjust the prescribed concentration, by adding the liquid chemical dropwise to the synthetic diet. The synthetic diet was inoculated with third-instar larvae of common cutworm, after which the dish was closed and then allowed to stand in a room thermostatted at 25° C. Eight days after the inoculation, the dead and alive were counted, and the mortality was calculated according to the following equation. The test was carried out with triplicate groups of 10 insects. [formula]
The compounds described in JP-A-2001-131141 were used as comparative compounds as follows: […]

For the compound `CSCC(C)(C)NC(=O)c1c(I)cccc1C(=O)Nc1ccc(OC(F)(F)F)cc1Cl` [Compound A, N^1-[2-chloro-4-(trifluoromethoxy)phenyl]-N^2-(1,1-dimethyl-2-methylthioethyl)-3-iodophthalamide], in data set [1], the “Mortality, Highest leaf” value is on record as 0%; the “Mortality, Second highest leaf” value is recorded as 95%; the “Mortality, Third highest leaf” value came to 100%. In data set [2], the mortality (commonly the share of the test organisms that died) at 5 ppm is 5%, the mortality at 50 ppm worked out at 100% and the mortality at 500 ppm came out at 100%.

Turning to `CC(C)(CS(C)(=O)=O)NC(=O)c1c(I)cccc1C(=O)Nc1ccc(OC(F)(F)F)cc1Cl` [Compound B, N^1-[2-chloro-4-(trifluoromethoxy)phenyl]-3-iodo-N^2-(1,1-dimethyl-2-methylsulfonylethyl)phthalamide], in data set [1], the “Mortality, Highest leaf” value came to 0%; the “Mortality, Second highest leaf” value was 50%; the “Mortality, Third highest leaf” value stood at 100%. In addition, in data set [2], the mortality at 5 ppm was found to be 0%, the mortality at 50 ppm amounted to 100% and the mortality at 500 ppm was 100%.
